# Assay results taken from ChEMBL document CHEMBL1146757, “Silanediol peptidomimetics. Evaluation of four diastereomeric ACE inhibitors” (Bioorg Med Chem Lett, 2004).
# Biological target: T1, Angiotensin-converting enzyme (Oryctolagus cuniculus, UniProt P12822)
# T1 sequence (P12822 whole entry): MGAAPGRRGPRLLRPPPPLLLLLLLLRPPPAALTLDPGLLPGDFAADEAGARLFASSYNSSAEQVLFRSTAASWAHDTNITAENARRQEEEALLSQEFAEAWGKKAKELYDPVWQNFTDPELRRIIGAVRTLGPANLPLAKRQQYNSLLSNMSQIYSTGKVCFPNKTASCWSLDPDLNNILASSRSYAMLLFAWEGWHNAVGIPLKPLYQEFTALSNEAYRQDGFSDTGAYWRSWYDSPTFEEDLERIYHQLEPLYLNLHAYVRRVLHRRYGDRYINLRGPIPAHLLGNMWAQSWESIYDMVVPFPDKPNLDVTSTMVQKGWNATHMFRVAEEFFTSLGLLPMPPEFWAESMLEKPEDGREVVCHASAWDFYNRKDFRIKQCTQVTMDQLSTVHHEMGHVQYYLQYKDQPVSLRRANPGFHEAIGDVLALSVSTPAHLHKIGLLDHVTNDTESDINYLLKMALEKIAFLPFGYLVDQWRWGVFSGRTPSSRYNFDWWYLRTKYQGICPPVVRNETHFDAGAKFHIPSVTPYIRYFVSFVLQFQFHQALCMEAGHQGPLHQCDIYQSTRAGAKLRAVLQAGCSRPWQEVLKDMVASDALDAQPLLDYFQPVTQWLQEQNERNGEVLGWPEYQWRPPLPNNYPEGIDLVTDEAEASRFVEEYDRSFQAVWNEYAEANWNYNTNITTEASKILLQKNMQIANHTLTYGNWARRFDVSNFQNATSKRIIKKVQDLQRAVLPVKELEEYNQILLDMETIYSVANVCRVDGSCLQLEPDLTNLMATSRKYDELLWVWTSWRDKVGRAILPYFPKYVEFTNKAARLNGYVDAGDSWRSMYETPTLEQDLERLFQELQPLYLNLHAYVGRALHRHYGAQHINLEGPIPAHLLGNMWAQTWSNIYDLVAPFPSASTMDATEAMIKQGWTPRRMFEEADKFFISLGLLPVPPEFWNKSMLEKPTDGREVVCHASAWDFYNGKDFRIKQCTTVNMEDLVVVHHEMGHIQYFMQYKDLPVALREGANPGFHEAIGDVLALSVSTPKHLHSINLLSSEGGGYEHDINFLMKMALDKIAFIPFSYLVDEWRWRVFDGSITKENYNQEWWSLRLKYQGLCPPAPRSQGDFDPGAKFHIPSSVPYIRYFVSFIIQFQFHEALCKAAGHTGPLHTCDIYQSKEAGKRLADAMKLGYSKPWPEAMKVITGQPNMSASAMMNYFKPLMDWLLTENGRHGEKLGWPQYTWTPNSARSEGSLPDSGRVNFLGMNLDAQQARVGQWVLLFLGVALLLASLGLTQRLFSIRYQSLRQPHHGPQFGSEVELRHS
# Experiment: Inhibitory activity of compound against angiotensin I converting enzyme was determined
row,Compound,IC50
1,C[C@@H](C[Si](O)(O)[C@@H](Cc1ccccc1)NC(=O)c1ccccc1)C(=O)N1CCC[C@H]1C(=O)O,72 nM
2,C[C@H](C[Si](O)(O)[C@@H](Cc1ccccc1)NC(=O)c1ccccc1)C(=O)N1CCC[C@H]1C(=O)O,19 nM
3,CC(C)CC(NC(=O)c1ccccc1)[Si](O)(O)CC(C)C(=O)N1CCC[C@H]1C(=O)O (stereo not given in full),14 nM
4,C[C@@H](C[Si](O)(O)[C@H](Cc1ccccc1)NC(=O)c1ccccc1)C(=O)N1CCC[C@H]1C(=O)O,207 nM
5,C[C@H](C[Si](O)(O)[C@H](Cc1ccccc1)NC(=O)c1ccccc1)C(=O)N1CCC[C@H]1C(=O)O,3.8 nM
